Experiments:
[1] = test system: Phakopsora pachyrhizi (F129L); experiment: Protective control of soybean rust on soybeans (PHAKPA P6); format: in vivo; conditions: soybean rust F129L; for % PHAKPA (F129L) Disease level P6 at 4 ppm: protective P6, 4 ppm; for % PHAKPA (F129L) Disease level P6 at 16 ppm: protective P6, 16 ppm
[2] = test system: Phakopsora pachyrhizi (F129L); experiment: Protective control of soybean rust on soybeans (PHAKPA P2); format: in vivo; conditions: soybean rust F129L; for % PHAKPA (F129L) Disease level P2 at 4 ppm: protective P2, 4 ppm; for % PHAKPA (F129L) Disease level P2 at 16 ppm: protective P2, 16 ppm

Compound: CO/N=C(/C(=O)OC)c1cccc(C)c1CO/N=C(\C)c1ccc(OC(F)(F)F)cc1 [compound 133]
- % PHAKPA (F129L) Disease level P6 at 4 ppm [1]: 2%
- % PHAKPA (F129L) Disease level P6 at 16 ppm [1]: 0%
- % PHAKPA (F129L) Disease level P2 at 4 ppm [2]: 1%
- % PHAKPA (F129L) Disease level P2 at 16 ppm [2]: 0%

Compound: CO/N=C(/C(=O)OC)c1cccc(C)c1CO/N=C(\C)c1cccc(Br)c1F [compound 134]
- % PHAKPA (F129L) Disease level P6 at 4 ppm [1]: 22%
- % PHAKPA (F129L) Disease level P6 at 16 ppm [1]: 7%
- % PHAKPA (F129L) Disease level P2 at 4 ppm [2]: 37%
- % PHAKPA (F129L) Disease level P2 at 16 ppm [2]: 10%

Compound: CO/N=C(/C(=O)OC)c1cccc(C)c1CO/N=C(\C)c1cc(Br)cc(Br)c1 [compound 135]
- % PHAKPA (F129L) Disease level P6 at 4 ppm [1]: 16%
- % PHAKPA (F129L) Disease level P6 at 16 ppm [1]: 2%
- % PHAKPA (F129L) Disease level P2 at 4 ppm [2]: 15%
- % PHAKPA (F129L) Disease level P2 at 16 ppm [2]: 1%

Compound: CNC(=O)/C(=N/OC)c1cccc(C)c1CO/N=C(\C)c1ccc(OC(F)(F)F)cc1 [compound 136]
- % PHAKPA (F129L) Disease level P6 at 4 ppm [1]: 3%
- % PHAKPA (F129L) Disease level P6 at 16 ppm [1]: 2%
- % PHAKPA (F129L) Disease level P2 at 4 ppm [2]: 1%
- % PHAKPA (F129L) Disease level P2 at 16 ppm [2]: 0%

Compound: CO/N=C(/C(=O)OC)c1cccc(C)c1CO/N=C(\C)c1ccc(C)c(C)c1 [compound 137]
- % PHAKPA (F129L) Disease level P6 at 4 ppm [1]: 50%
- % PHAKPA (F129L) Disease level P6 at 16 ppm [1]: 5%
- % PHAKPA (F129L) Disease level P2 at 4 ppm [2]: 19%
- % PHAKPA (F129L) Disease level P2 at 16 ppm [2]: 2%

Compound: CO/N=C(/C(=O)OC)c1cccc(C)c1CO/N=C(\C)c1cc(Br)ccc1F [compound 138]
- % PHAKPA (F129L) Disease level P6 at 4 ppm [1]: 35%
- % PHAKPA (F129L) Disease level P6 at 16 ppm [1]: 1%
- % PHAKPA (F129L) Disease level P2 at 4 ppm [2]: 47%
- % PHAKPA (F129L) Disease level P2 at 16 ppm [2]: 2%

Compound: CNC(=O)/C(=N/OC)c1cccc(C)c1CO/N=C(\C)c1ccc(C)c(C)c1 [compound 139]
- % PHAKPA (F129L) Disease level P6 at 4 ppm [1]: 72%
- % PHAKPA (F129L) Disease level P6 at 16 ppm [1]: 24%
- % PHAKPA (F129L) Disease level P2 at 4 ppm [2]: 47%
- % PHAKPA (F129L) Disease level P2 at 16 ppm [2]: 2%

Compound: CNC(=O)/C(=N/OC)c1cccc(C)c1CO/N=C(\C)c1cc(Br)ccc1F [compound 140]
- % PHAKPA (F129L) Disease level P6 at 4 ppm [1]: 13%
- % PHAKPA (F129L) Disease level P6 at 16 ppm [1]: 4%
- % PHAKPA (F129L) Disease level P2 at 4 ppm [2]: 8%
- % PHAKPA (F129L) Disease level P2 at 16 ppm [2]: 0%

Compound: CNC(=O)/C(=N/OC)c1cccc(C)c1CO/N=C(\C)c1cccc(Br)c1F [compound 141]
- % PHAKPA (F129L) Disease level P6 at 4 ppm [1]: 2%
- % PHAKPA (F129L) Disease level P6 at 16 ppm [1]: 0%
- % PHAKPA (F129L) Disease level P2 at 4 ppm [2]: 2%
- % PHAKPA (F129L) Disease level P2 at 16 ppm [2]: 0%

Compound: CNC(=O)/C(=N/OC)c1cccc(C)c1CO/N=C(\C)c1cc(Br)cc(Br)c1 [compound 142]
- % PHAKPA (F129L) Disease level P6 at 4 ppm [1]: 26%
- % PHAKPA (F129L) Disease level P6 at 16 ppm [1]: 5%
- % PHAKPA (F129L) Disease level P2 at 4 ppm [2]: 19%
- % PHAKPA (F129L) Disease level P2 at 16 ppm [2]: 5%

Compound: C#Cc1cc(/C(C)=N/OCc2c(C)cccc2/C(=N\OC)C(=O)OC)cc(C(F)(F)F)c1 [compound 143]
- % PHAKPA (F129L) Disease level P6 at 4 ppm [1]: 15%
- % PHAKPA (F129L) Disease level P6 at 16 ppm [1]: 0%
- % PHAKPA (F129L) Disease level P2 at 4 ppm [2]: 4%
- % PHAKPA (F129L) Disease level P2 at 16 ppm [2]: 0%

Compound: CO/N=C(/C(=O)OC)c1cccc(C)c1CO/N=C(\C)c1cc(-c2ccccc2)cc(C(F)(F)F)c1 [compound 144]
- % PHAKPA (F129L) Disease level P6 at 4 ppm [1]: 92%
- % PHAKPA (F129L) Disease level P6 at 16 ppm [1]: 90%
- % PHAKPA (F129L) Disease level P2 at 4 ppm [2]: 87%
- % PHAKPA (F129L) Disease level P2 at 16 ppm [2]: 80%

Compound: CO/N=C(/C(=O)OC)c1cccc(C)c1CO/N=C(\C)c1cc(C2CC2)cc(C(F)(F)F)c1 [compound 145]
- % PHAKPA (F129L) Disease level P6 at 4 ppm [1]: 37%
- % PHAKPA (F129L) Disease level P6 at 16 ppm [1]: 16%
- % PHAKPA (F129L) Disease level P2 at 4 ppm [2]: 28%
- % PHAKPA (F129L) Disease level P2 at 16 ppm [2]: 8%

Compound: CCc1cc(/C(C)=N/OCc2c(C)cccc2/C(=N\OC)C(=O)OC)cc(C(F)(F)F)c1 [compound 146]
- % PHAKPA (F129L) Disease level P6 at 4 ppm [1]: 77%
- % PHAKPA (F129L) Disease level P6 at 16 ppm [1]: 48%
- % PHAKPA (F129L) Disease level P2 at 4 ppm [2]: 73%
- % PHAKPA (F129L) Disease level P2 at 16 ppm [2]: 12%

Compound: C=Cc1cc(/C(C)=N/OCc2c(C)cccc2/C(=N\OC)C(=O)OC)cc(C(F)(F)F)c1 [compound 147]
- % PHAKPA (F129L) Disease level P6 at 4 ppm [1]: 95%
- % PHAKPA (F129L) Disease level P6 at 16 ppm [1]: 18%
- % PHAKPA (F129L) Disease level P2 at 4 ppm [2]: 73%
- % PHAKPA (F129L) Disease level P2 at 16 ppm [2]: 18%

Compound: C#Cc1cc(/C(C)=N/OCc2c(C)cccc2/C(=N\OC)C(=O)NC)cc(C(F)(F)F)c1 [compound 148]
- % PHAKPA (F129L) Disease level P6 at 4 ppm [1]: 13%
- % PHAKPA (F129L) Disease level P6 at 16 ppm [1]: 7%
- % PHAKPA (F129L) Disease level P2 at 4 ppm [2]: 9%
- % PHAKPA (F129L) Disease level P2 at 16 ppm [2]: 2%

Compound: CNC(=O)/C(=N/OC)c1cccc(C)c1CO/N=C(\C)c1cc(-c2ccccc2)cc(C(F)(F)F)c1 [compound 149]
- % PHAKPA (F129L) Disease level P6 at 4 ppm [1]: 87%
- % PHAKPA (F129L) Disease level P6 at 16 ppm [1]: 31%
- % PHAKPA (F129L) Disease level P2 at 4 ppm [2]: 83%
- % PHAKPA (F129L) Disease level P2 at 16 ppm [2]: 45%

Compound: CNC(=O)/C(=N/OC)c1cccc(C)c1CO/N=C(\C)c1cc(C2CC2)cc(C(F)(F)F)c1 [compound 150]
- % PHAKPA (F129L) Disease level P6 at 4 ppm [1]: 70%
- % PHAKPA (F129L) Disease level P6 at 16 ppm [1]: 29%
- % PHAKPA (F129L) Disease level P2 at 4 ppm [2]: 56%
- % PHAKPA (F129L) Disease level P2 at 16 ppm [2]: 8%

Compound: CCc1cc(/C(C)=N/OCc2c(C)cccc2/C(=N\OC)C(=O)NC)cc(C(F)(F)F)c1 [compound 151]
- % PHAKPA (F129L) Disease level P6 at 4 ppm [1]: 53%
- % PHAKPA (F129L) Disease level P6 at 16 ppm [1]: 6%
- % PHAKPA (F129L) Disease level P2 at 4 ppm [2]: 37%
- % PHAKPA (F129L) Disease level P2 at 16 ppm [2]: 3%

Compound: C=Cc1cc(/C(C)=N/OCc2c(C)cccc2/C(=N\OC)C(=O)NC)cc(C(F)(F)F)c1 [compound 152]
- % PHAKPA (F129L) Disease level P6 at 4 ppm [1]: 38%
- % PHAKPA (F129L) Disease level P6 at 16 ppm [1]: 7%
- % PHAKPA (F129L) Disease level P2 at 4 ppm [2]: 24%
- % PHAKPA (F129L) Disease level P2 at 16 ppm [2]: 1%

Compound: CO/N=C(/C(=O)OC)c1cccc(C)c1CO/N=C(\C)c1c(F)ccc(C(F)(F)F)c1F [compound 156]
- % PHAKPA (F129L) Disease level P6 at 4 ppm [1]: 47%
- % PHAKPA (F129L) Disease level P6 at 16 ppm [1]: 3%
- % PHAKPA (F129L) Disease level P2 at 4 ppm [2]: 27%
- % PHAKPA (F129L) Disease level P2 at 16 ppm [2]: 0%

Compound: CO/N=C(/C(=O)OC)c1cccc(C)c1CO/N=C(\C)c1cccc(CC2COC2)c1 [compound 160]
- % PHAKPA (F129L) Disease level P6 at 4 ppm [1]: 87%
- % PHAKPA (F129L) Disease level P6 at 16 ppm [1]: 90%
- % PHAKPA (F129L) Disease level P2 at 4 ppm [2]: 100%
- % PHAKPA (F129L) Disease level P2 at 16 ppm [2]: 97%

Compound: CNC(=O)/C(=N/OC)c1cccc(C)c1CO/N=C(\C)c1cccc(CC2COC2)c1 [compound 161]
- % PHAKPA (F129L) Disease level P6 at 4 ppm [1]: 100%
- % PHAKPA (F129L) Disease level P6 at 16 ppm [1]: 90%
- % PHAKPA (F129L) Disease level P2 at 4 ppm [2]: 100%
- % PHAKPA (F129L) Disease level P2 at 16 ppm [2]: 100%

Compound: CNC(=O)/C(=N/OC)c1cccc(C)c1CO/N=C(\C)c1c(F)ccc(C(F)(F)F)c1F [compound 162]
- % PHAKPA (F129L) Disease level P6 at 4 ppm [1]: 1%
- % PHAKPA (F129L) Disease level P6 at 16 ppm [1]: 0%
- % PHAKPA (F129L) Disease level P2 at 4 ppm [2]: 0%
- % PHAKPA (F129L) Disease level P2 at 16 ppm [2]: 0%

Compound: CO/N=C(/C(=O)OC)c1cccc(C)c1CO/N=C(\C)c1ccc(C)c(Cl)c1 [compound 163]
- % PHAKPA (F129L) Disease level P6 at 4 ppm [1]: 47%
- % PHAKPA (F129L) Disease level P6 at 16 ppm [1]: 9%
- % PHAKPA (F129L) Disease level P2 at 4 ppm [2]: 20%
- % PHAKPA (F129L) Disease level P2 at 16 ppm [2]: 1%

Compound: CNC(=O)/C(=N/OC)c1cccc(C)c1CO/N=C(\C)c1ccc(OC)cc1 [compound 164]
- % PHAKPA (F129L) Disease level P6 at 4 ppm [1]: 27%
- % PHAKPA (F129L) Disease level P6 at 16 ppm [1]: 0%
- % PHAKPA (F129L) Disease level P2 at 4 ppm [2]: 5%
- % PHAKPA (F129L) Disease level P2 at 16 ppm [2]: 0%
